Source: patent US9040563B2, “Dual inhibitors of farnesyltransferase and geranylgeranyltransferase I” (H. Lee Moffitt Cancer Center and Research Institute, Inc., priority 2010, dated 2015)
Where two headings read alike, the source gives them in different places.

Tests used:
hFTase = hFTase (Homo sapiens, UniProt P49354+P49356); test: In vitro hFTase inhibition: incorporation of [3H]FPP into recombinant H-Ras-CVLS; type: biochemical; settings: for selectivity (ratio of GGTase-I to FTase IC50s): GGTase-I IC50 / hFTase IC50
[1] = test system: geranylgeranylation of Rap1A; test: Whole cell inhibition of Rap1A processing (geranylgeranylation), immunoblot, oncogenic H-Ras-transformed NIH3T3 cells; type: cell-based, mouse; settings: Mus musculus
Method: In vitro inhibition assays for FTase and GGTase-I were conducted by measuring the incorporation of [^3H]FPP and [^3H]GGPP into recombinant H-Ras-CVLS and H-Ras-CVLL, respectively, as previously described (Vogt, et al., Protein geranylgeranylation, not farnesylation, is required for the G1 to S phase transition in mouse fibroblasts. Oncogene, 1996, 13, 1991-1999). The in vivo inhibition of farnesylation and geranylgeranylation was determined based on the level of inhibition by synthetic compounds of H-Ras and Rap1A processing, respectively (Sun, et al., Both farnesyltransferase and geranylgeranyltransferase I inhibitors are required for inhibition of oncogenic K-Ras prenylation but each alone is sufficient to suppress human tumor growth in nude mouse xenografts. Oncogene, 1998, 16, 1467-1473). […] The separated proteins were transferred to nitrocellulose and immunoblotted using an anti-Ras antibody (Y13-258) or an anti-Rap1A antibody (SantaCruz Biotechnology, Santa Cruz, Calif.), respectively. Antibody reactions were visualized using either peroxidase-conjugated goat anti-rat IgG or goat anti-rabbit IgG (Jackson ImmunoResearch, West Grove, Pa.) and an enhanced chemiluminescence detection system.
Briefly, in vitro inhibition assays for hFTase and GGTase-I were carried out by measuring the incorporation of [^3H]FPP and [^3H]GGPP into recombinant H-Ras-CVLS and H-Ras-CVLL, respectively, as described previously (Vogt et al., Protein geranylgeranylation, not farnesylation, is required for G1 to S phase transition in mouse fibroblasts. Oncogene. 1996; 13:1991-1999). Whole cell inhibition of farnesylation and geranylgeranylation were determined based on the level of inhibition by synthetic compounds of H-Ras and Rap1A processing, respectively (Sun, et al., Both farnesyltransferase and geranylgeranyltransferase I inhibitors are required for inhibition of oncogenic K-Ras prenylation but each alone is sufficient to suppress human tumor growth in nude mouse xenografts. Oncogene. 1998; 16:1467-1473).

[2] = whole cells, oncogenic H-Ras-transformed NIH3T3, n = 3 unless stated, read-out: Rap1A processing IC50

| selectivity (ratio of GGTase-I to FTase IC50s) (hFTase) | IC50 [1, 2] | IC50 (hFTase; in vitro, average of three independent assays (n = 3) unless stated, errors are standard deviations) | Compound | IC50 ([1]; NIH3T3, read-out: Rap1A processing IC50) |
| --- | --- | --- | --- | --- |
| >16 | – | – | Cn1cnc(S(=O)(=O)N(CCN(Cc2cncn2C)c2ncc(C#N)cn2)CC2CCN(c3ncccn3)CC2)c1 [19d, [N-{2-[(5-Cyanopyrimidin-2-yl)-(3-methyl-3H-imidazol-4-ylmethyl)-amino]-ethyl}, N-{N-(2-pyrimidinyl)-piperidin-4-ylmethyl}]1-methyl-1H-imidazole-4-sulfonamide] | – |
| 18 | – | – | Cn1cnc(S(=O)(=O)N(CCN(Cc2cncn2C)c2c(F)c(F)c(C#N)c(F)c2F)CC2CCN(c3ncccn3)CC2)c1 [19h, [N-{2-[(2,3,5,6-Tetrafluoro-4-cyanophenyl)-(3-methyl-3H-imidazol-4-ylmethyl)-amino]-ethyl}, N-{N-(2-pyrimidinyl)-piperidin-4-ylmethyl}]1-methyl-1H-imidazole-4-sulfonamide] | – |
| >10 | – | – | Cn1cnc(S(=O)(=O)N(Cc2ccccc2)[C@@H]2CCC[C@@H]2N(Cc2cncn2C)c2ccc(C#N)cc2)c1 [20b] | – |
| >15 | – | – | Cn1cnc(S(=O)(=O)N(Cc2ccccc2)[C@H]2CC[C@@H](N(Cc3cncn3C)c3ccc(C#N)cc3)C2)c1 [20d] | – |
| >34 | – | – | Cn1cnc(S(=O)(=O)N(CCN(Cc2cncn2C)c2c(F)cc(C#N)cc2F)CC2CCN(c3ncccn3)CC2)c1 [19g, [N-{2-[(2,6-Difluoro-4-cyanophenyl)-(3-methyl-3H-imidazol-4-ylmethyl)-amino]-ethyl}, N-{N-(2-pyrimidinyl)-piperidin-4-ylmethyl}]1-methyl-1H-imidazole-4-sulfonamide] | – |
| >91 | – | – | Cn1cnc(S(=O)(=O)N(CCN(Cc2cncn2C)c2ccc(C#N)cn2)CC2CCN(c3ncccn3)CC2)c1 [19c, [N-{2-[(5-Cyanopyridin-2-yl)-(3-methyl-3H-imidazol-4-ylmethyl)-amino]-ethyl}, N-{N-(2-pyrimidinyl)-piperidin-4-ylmethyl}]1-methyl-1H-imidazole-4-sulfonamide] | – |
| 11 | – | – | Cn1cnc(S(=O)(=O)N(CCCN(Cc2cncn2C)c2ccc(C#N)cc2)Cc2ccccc2)c1 [20a] | – |
| >156 | – | – | Cn1cnc(S(=O)(=O)N(CCN(Cc2cncn2C)c2ccc(C#N)cc2F)CC2CCN(c3ncccn3)CC2)c1 [compound 19f, [N-{2-[(2-Fluoro-4-cyanophenyl)-(3-methyl-3H-imidazol-4-ylmethyl)-amino]-ethyl}, N-{N-(2-pyrimidinyl)-piperidin-4-ylmethyl}]1-methyl-1H-imidazole-4-sulfonamide] | – |

Second part, the compound before the results:

| Compound | selectivity (ratio of GGTase-I to FTase IC50s) (hFTase) | IC50 [1, 2] | IC50 (hFTase; in vitro, average of three independent assays (n = 3) unless stated, errors are standard deviations) | IC50 ([1]; NIH3T3, read-out: Rap1A processing IC50) |
| --- | --- | --- | --- | --- |
| Cn1cnc(S(=O)(=O)N(CCN(Cc2cncn2C)c2ccc(-c3ccccc3)cc2)Cc2ccccc2)c1 [compound 14, [N-Benzyl, N-{2-[(biphenyl-4-yl)-(3-methyl-3H-imidazol-4-ylmethyl)-amino]-ethyl}]1-methyl-1H-imidazole-4-sulfonamide] | 0.7 | – | – | – |
| Cn1cnc(S(=O)(=O)N(CCN(Cc2cncn2C)c2ccc(C#N)nc2)CC2CCN(c3ncccn3)CC2)c1 [19b] | >19 | – | – | – |
| Cn1cnc(S(=O)(=O)N(CCN(Cc2cncn2C)c2ccc(C#N)cc2)Cc2ccsc2)c1 [compound 1ai, [N-(Thiophen-3-ylmethyl), N-{2-[(4-cyanophenyl)-(3-methyl-3H-imidazol-4-ylmethyl)-amino]-ethyl}]1-methyl-1H-imidazole-4-sulfonamide] | 14 | > 10 µM | – | – |
| Cn1cnc(S(=O)(=O)N(CCN(Cc2cncn2C)c2ccc(C#N)cc2)Cc2cccc(-c3ccccc3)c2)c1 [1at] | 2.4 | > 10 µM | – | – |
| Cc1cccc(CN(CCN(Cc2cncn2C)c2ccc(C#N)cc2)S(=O)(=O)c2cn(C)cn2)c1 [1ap] | 12 | > 10 µM | – | – |
| Cn1cnc(S(=O)(=O)N(CCN(Cc2cncn2C)c2ccc(C#N)c(F)c2)CC2CCN(c3ncccn3)CC2)c1 [19e, [N-{2-[(3-Fluoro-4-cyanophenyl)-(3-methyl-3H-imidazol-4-ylmethyl)-amino]-ethyl}, N-{N-(2-pyrimidinyl)-piperidin-4-ylmethyl}]1-methyl-1H-imidazole-4-sulfonamide] | 41 | – | – | – |
| Cn1cnc(S(=O)(=O)N(CCN(Cc2cncn2C)c2ccc(C#N)cc2Cl)CC2CCN(c3ncccn3)CC2)c1 [19a, [N-{2-[(2-Chloro-4-cyanophenyl)-(3-methyl-3H-imidazol-4-ylmethyl)-amino]-ethyl}, N-{N-(2-pyrimidinyl)-piperidin-4-ylmethyl}]1-methyl-1H-imidazole-4-sulfonamide] | >18 | – | – | – |
| Cn1cnc(S(=O)(=O)N(CCN(Cc2cncn2C)c2ccc(C#N)cc2)Cc2cccs2)c1 [1ak, [N-(Thiophen-2-ylmethyl), N-{2-[(4-cyanophenyl)-(3-methyl-3H-imidazol-4-ylmethyl)-amino]-ethyl}]1-methyl-1H-imidazole-4-sulfonamide] | 2.6 | > 10 µM | – | – |
| Cn1cncc1CN(CCN(Cc1ccccc1)S(=O)(=O)c1ccccc1)c1ccc(C#N)cc1 [1d] | 7.6 | > 10 µM | – | – |
| Cn1cnc(S(=O)(=O)N(CCN(Cc2cnc[nH]2)c2ccccc2)Cc2ccccc2)c1 [compound 3] | 1.6 | > 10 µM | 6.3 ± 0.36 µM | – |
| Cn1cnc(S(=O)(=O)N(CCN(Cc2cncn2C)c2ccc(C(=O)OC(C)(C)C)cc2)Cc2ccccc2)c1 [compound 11, tert-Butyl 4-[{2-[benzyl-(1-methyl-1H-imidazole-4-sulfonyl)-amino]-ethyl}-(3-methyl-3H-imidazol-4-ylmethyl)-amino]-benzoate] | 0.9 | – | – | – |
| C=CCN(CCN(Cc1cncn1C)c1ccc(C#N)cc1)S(=O)(=O)c1cn(C)cn1 [1ab] | >14 | > 10 µM | – | – |
| Cn1cnc(S(=O)(=O)N(CCN(Cc2cncn2C)c2ccc(C(=O)O)cc2)Cc2ccccc2)c1 [compound 12, 4-[{2-[Benzyl-(1-methyl-1H-imidazole-4-sulfonyl)-amino]-ethyl}-(3-methyl-3H-imidazol-4-ylmethyl)-amino]-benzoic acid] | 48 | – | – | – |
| Cn1cnc(S(=O)(=O)N(CCN(Cc2cncn2C)c2ccc(C#N)cc2)Cc2ccc(-n3cccc3)cc2)c1 [1av] | 15 | > 10 µM | – | – |
| Cn1cnc(S(=O)(=O)N(CCN(Cc2cncn2C)c2ccc(C#N)cc2)Cc2ccco2)c1 [compound 1aj, [N-(Furan-2-ylmethyl), N-{2-[(4-cyanophenyl)-(3-methyl-3H-imidazol-4-ylmethyl)-amino]-ethyl}]1-methyl-1H-imidazole-4-sulfonamide] | 15 | > 10 µM | – | – |
| 4-[{2-[Benzyl-(1-methyl-1H-imidazole-4-sulfonyl)-amino]-ethyl}-(1-methyl-1H-imidazol-4-ylmethyl)-amino]-benzamide [compound 13] | >2 | – | – | – |
| Cc1ccccc1CN(CCN(Cc1cncn1C)c1ccc(C#N)cc1)S(=O)(=O)c1cn(C)cn1 [1ao] | 15 | > 10 µM | – | – |
| Cn1cnc(S(=O)(=O)N(CCN(Cc2cncn2C)c2ccc(C#N)cc2)Cc2cccc(C#N)c2)c1 [1ar] | – | > 10 µM | – | – |
| Cc1ccc(CN(CCN(Cc2cncn2C)c2ccc(C#N)cc2)S(=O)(=O)c2cn(C)cn2)cc1 [1aq] | – | – | – | > 10 µM |
